# Data taken from publication PMC3032553, “Structural Basis for c-di-GMP-Mediated Inside-Out Signaling Controlling Periplasmic Proteolysis” (PLoS Biology, 2011).
# T1: LapD^EAL (Pseudomonas fluorescens, UniProt Q3KK31, A602E)
# T1 construct: isolated degenerate EAL domain, residues 399-648; purified; dimer with c-di-GMP
# T1 sequence (Q3KK31 399-648 A602E): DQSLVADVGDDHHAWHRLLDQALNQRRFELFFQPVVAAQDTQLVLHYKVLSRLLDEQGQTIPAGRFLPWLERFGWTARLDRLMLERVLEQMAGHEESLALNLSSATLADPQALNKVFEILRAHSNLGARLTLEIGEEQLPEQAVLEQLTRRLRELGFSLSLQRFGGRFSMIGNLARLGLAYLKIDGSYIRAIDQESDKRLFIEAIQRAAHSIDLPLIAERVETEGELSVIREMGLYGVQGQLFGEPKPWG
# T2: LapD^dual (Pseudomonas fluorescens, UniProt Q3KK31)
# T2 construct: cytoplasmic S helix-GGDEF-EAL dual domain module, residues 220-648, lacks HAMP; purified; apo monomer, dimerizes with c-di-GMP
# T2 sequence (Q3KK31 220-648): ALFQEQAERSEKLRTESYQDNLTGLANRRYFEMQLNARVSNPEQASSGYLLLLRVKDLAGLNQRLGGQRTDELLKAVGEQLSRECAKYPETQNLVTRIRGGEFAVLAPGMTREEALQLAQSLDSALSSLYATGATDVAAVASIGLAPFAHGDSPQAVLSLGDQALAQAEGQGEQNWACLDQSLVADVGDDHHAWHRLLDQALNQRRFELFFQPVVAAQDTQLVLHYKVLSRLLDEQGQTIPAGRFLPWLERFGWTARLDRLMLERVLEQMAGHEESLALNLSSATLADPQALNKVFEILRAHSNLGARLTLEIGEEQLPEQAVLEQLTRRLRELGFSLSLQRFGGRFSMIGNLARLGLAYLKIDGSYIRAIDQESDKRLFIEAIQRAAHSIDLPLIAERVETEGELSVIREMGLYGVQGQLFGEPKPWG
# T3: LapD^dual (Pseudomonas fluorescens, UniProt Q3KK31, A602E)
# T3 construct: cytoplasmic S helix-GGDEF-EAL dual domain module, residues 220-648, lacks HAMP; purified; apo monomer, dimerizes with c-di-GMP
# T3 sequence (Q3KK31 220-648 A602E): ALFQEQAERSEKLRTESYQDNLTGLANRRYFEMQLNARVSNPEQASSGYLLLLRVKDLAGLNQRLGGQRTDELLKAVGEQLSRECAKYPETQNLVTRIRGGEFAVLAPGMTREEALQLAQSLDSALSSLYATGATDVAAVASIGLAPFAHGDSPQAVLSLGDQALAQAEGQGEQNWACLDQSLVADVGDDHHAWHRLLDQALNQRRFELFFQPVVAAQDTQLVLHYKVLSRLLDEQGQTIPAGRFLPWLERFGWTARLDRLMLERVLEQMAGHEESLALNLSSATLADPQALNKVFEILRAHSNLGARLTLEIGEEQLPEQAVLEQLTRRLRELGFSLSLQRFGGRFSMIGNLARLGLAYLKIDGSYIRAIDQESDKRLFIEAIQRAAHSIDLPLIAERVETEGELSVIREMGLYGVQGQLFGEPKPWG
# T4: LapD^dual (Pseudomonas fluorescens, UniProt Q3KK31, A602E/S229D)
# T4 construct: cytoplasmic S helix-GGDEF-EAL dual domain module, residues 220-648, lacks HAMP; purified; apo monomer, dimerizes with c-di-GMP
# T4 sequence (Q3KK31 220-648 S229D/A602E): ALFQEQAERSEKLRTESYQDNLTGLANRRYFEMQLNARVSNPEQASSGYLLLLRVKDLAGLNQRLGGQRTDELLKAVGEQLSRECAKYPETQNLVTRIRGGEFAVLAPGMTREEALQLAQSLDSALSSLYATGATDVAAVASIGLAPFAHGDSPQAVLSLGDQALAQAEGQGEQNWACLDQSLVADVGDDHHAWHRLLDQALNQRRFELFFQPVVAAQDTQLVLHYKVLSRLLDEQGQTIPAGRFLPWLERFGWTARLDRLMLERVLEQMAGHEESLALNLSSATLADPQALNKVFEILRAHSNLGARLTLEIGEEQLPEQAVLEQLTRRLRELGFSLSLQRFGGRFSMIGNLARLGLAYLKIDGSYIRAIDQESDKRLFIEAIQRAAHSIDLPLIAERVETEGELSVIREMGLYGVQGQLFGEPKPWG
# T5: LapD^dual (Pseudomonas fluorescens, UniProt Q3KK31, E262A)
# T5 construct: cytoplasmic S helix-GGDEF-EAL dual domain module, residues 220-648, lacks HAMP; purified; apo monomer, dimerizes with c-di-GMP
# T5 sequence (Q3KK31 220-648 E262A): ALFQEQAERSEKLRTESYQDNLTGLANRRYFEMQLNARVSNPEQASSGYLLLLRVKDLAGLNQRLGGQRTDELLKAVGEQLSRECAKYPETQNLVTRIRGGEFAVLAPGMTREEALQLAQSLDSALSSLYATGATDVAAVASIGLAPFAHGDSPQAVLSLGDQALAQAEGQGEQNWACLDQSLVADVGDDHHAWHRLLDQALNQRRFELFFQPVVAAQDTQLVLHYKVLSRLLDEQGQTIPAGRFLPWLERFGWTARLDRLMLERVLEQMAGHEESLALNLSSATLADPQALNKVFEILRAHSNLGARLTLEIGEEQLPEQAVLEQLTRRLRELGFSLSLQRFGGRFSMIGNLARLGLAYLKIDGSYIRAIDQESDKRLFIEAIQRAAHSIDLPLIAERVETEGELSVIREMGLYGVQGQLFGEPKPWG
# T6: LapD^dual (Pseudomonas fluorescens, UniProt Q3KK31, S229D)
# T6 construct: cytoplasmic S helix-GGDEF-EAL dual domain module, residues 220-648, lacks HAMP; purified; apo monomer, dimerizes with c-di-GMP
# T6 sequence (Q3KK31 220-648 S229D): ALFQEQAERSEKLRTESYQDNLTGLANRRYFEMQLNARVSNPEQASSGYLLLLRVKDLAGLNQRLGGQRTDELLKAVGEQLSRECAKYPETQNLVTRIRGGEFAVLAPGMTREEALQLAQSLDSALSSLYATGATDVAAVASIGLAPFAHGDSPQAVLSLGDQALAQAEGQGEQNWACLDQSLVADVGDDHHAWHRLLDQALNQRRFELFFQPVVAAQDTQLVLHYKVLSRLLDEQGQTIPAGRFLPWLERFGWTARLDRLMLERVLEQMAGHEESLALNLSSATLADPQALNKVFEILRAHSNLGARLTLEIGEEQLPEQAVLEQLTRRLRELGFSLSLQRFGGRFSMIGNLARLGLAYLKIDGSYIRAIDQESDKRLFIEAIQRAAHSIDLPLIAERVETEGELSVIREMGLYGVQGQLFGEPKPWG
# T7: His6-tagged LapG (P. fluorescens)
# T7 chain: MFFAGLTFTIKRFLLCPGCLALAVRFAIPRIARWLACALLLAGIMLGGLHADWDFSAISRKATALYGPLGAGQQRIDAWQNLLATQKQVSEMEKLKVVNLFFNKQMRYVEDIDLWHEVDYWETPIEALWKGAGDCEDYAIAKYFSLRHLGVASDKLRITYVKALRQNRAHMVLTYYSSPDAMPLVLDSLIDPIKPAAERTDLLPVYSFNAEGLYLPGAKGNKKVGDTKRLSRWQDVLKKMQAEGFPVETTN
# B1: LapD^output, wild-type (periplasmic output domain of LapD, residues 22-151) (domain or fragment, P. fluorescens Pf0-1, UniProt Q3KK31 22-151, looked up)
# chain: SFMVSLESSRTQYVNQLRSHAQDAATALALSLTPNIDDPAMVELLVSSIFDSGYYSSIRVVDLKTDQTIVERNGIPAVTNVPDWFVKLIGLEPAGGDALVSRGWEQAARVEVVSHPMFALAKLWQSALGS
# notes: LapD, P. fluorescens Pf0-1, residues 22-151 (periplasmic output domain); untagged in the pull-down; domain-swapped dimer in the crystal; The crystals were grown with selenomethionine-derivatized protein; the final model spans residues 23-150; also called periplasmic domain of LapD; source: produced following standard molecular biology and liquid chromatography techniques, purified (protocols in …)
# B2: LapD^EAL, wild-type (EAL domain of LapD, residues 399-648) (domain or fragment, P. fluorescens Pf0-1, UniProt Q3KK31 399-648, looked up)
# chain: DQSLVADVGDDHHAWHRLLDQALNQRRFELFFQPVVAAQDTQLVLHYKVLSRLLDEQGQTIPAGRFLPWLERFGWTARLDRLMLERVLEQMAGHEESLALNLSSATLADPQALNKVFEILRAHSNLGARLTLEIGEEQLPEQAVLEQLTRRLRELGFSLSLQRFGGRFSMIGNLARLGLAYLKIDGSYIRAIDQESDKRLFIEAIQRAAHSIDLPLIAERVETEGELSVIREMGLYGVQGQLFGEPKPWG
# notes: LapD, P. fluorescens Pf0-1, residues 399-648 (degenerate EAL domain); also called isolated EAL domain; LapD^EAL•c-di-GMP; source: produced following standard molecular biology and liquid chromatography techniques, purified (protocols in Text S1)
# Legend:
# [1] = biological target: T1, LapD^EAL; test: radioligand filter binding, one-site fit; details: read-out: Apparent K d
# From the text: radioligand filter binding, one-site fit on LapD^EAL
# [2] = biological target: T2, LapD^dual; test: radioligand filter binding, one-site fit; details: read-out: Apparent K d
# From the text: (§1) radioligand filter binding, one-site fit on LapD^dual
# [3] = biological target: T3, LapD^dual; test: radioligand filter binding, one-site fit; details: read-out: Apparent K d
# From the text: as §1
# [4] = biological target: T4, LapD^dual; test: radioligand filter binding, one-site fit; details: read-out: Apparent K d
# From the text: as §1
# [5] = biological target: T5, LapD^dual; test: radioligand filter binding, one-site fit; details: read-out: Apparent K d
# From the text: as §1
# [6] = biological target: T6, LapD^dual; test: radioligand filter binding, one-site fit; details: read-out: Apparent K d
# From the text: as §1
# [7] = biological target: the molecule itself; test: crystal structure; LapD^output, selenomethionine-derivatized, 1.8 Å, two molecules per asymmetric unit
# [8] = biological target: T7, His6-tagged LapG; test: pull-down; His6-LapG bound to NiNTA resin, untagged LapD output domain variants added, 1 h at 4°C; 25 mM Tris-HCl pH 8.4, 75 mM NaCl, 25 mM KCl, 40 mM imidazole; eluates on SDS-PAGE (Coomassie; SYPRO Ruby for quantification); details: both partners purified
# [9] = biological target: the molecule itself; test: SEC-MALS; protein incubated with 500 µM c-di-GMP for 30 min at room temperature before SEC, no c-di-GMP in the mobile phase; 20-320 µM injected protein; 25 mM Tris-HCl pH 8.4, 250 mM NaCl; 25°C
molecule,measurement,setting,value
Nc1nc2c(ncn2[C@@H]2O[C@@H]3CO[P@](=O)(O)O[C@H]4[C@@H](O)[C@H](n5cnc6c(=O)[nH]c(N)nc65)O[C@@H]4CO[P@](=O)(O)O[C@H]3[C@H]2O)c(=O)[nH]1 [c-di-GMP],Kd,[1],36.3 ± 5.4 µM
same,Kd,[2],27 ± 4.7 µM
same,Kd,[3],> 1000 µM
same,Kd,[4],> 1000 µM
same,Kd,[5],15.3 ± 1.7 µM
same,Kd,[6],15.1 ± 1.8 µM
B1,binding result,[7],binds
same,stoichiometry N,[8],2 LapG molecules per output domain dimer
B2,binding result,[9],binds
